Measurements published in patent EP4775570A1, “CYP11A1 INHIBITOR, PREPARATION METHOD THEREFOR AND USE THEREOF” (Shenzhen Zhongge Biological Technology Co., Ltd., priority 2023, dated 2025).

How the values were obtained:
[1] = test system: VCaP castration-resistant prostate cancer subcutaneous transplant tumor model; test: In vivo pharmacodynamic study in a VCaP castration-resistant prostate cancer subcutaneous transplant tumor model; set-up: species or system SCID-Beige mice; settings: 30mg/kg BID oral + prednisone 0.6mg/kg QD; for tumor inhibitory activity (in words): compared with ODM-208
Procedure: Animals: experimental male SCID-Beige mice, 6-8-weeks old or 18-22g, provided by Beijing Vital River Laboratory Animal Technology Co., Ltd.
Experiment procedures: all experimental animals were kept within specific-pathogen-free animal barrier facility, and allowed 3 days of adaptation before the experiment began. VCaP tumor cells were in vitro cultured as monolayer in DMEM complete medium (with 10% fetal bovine serum and 1% penicillin & streptomycin) at 37°C in air containing 5% CO2. Tumor cells were routinely passaged 2-3 times a week, and cells in exponential growth phase were collected and counted for tumor cell inoculation. 10x10^6 VCaP tumor cells were resuspended in 0.1ml PBS, thoroughly mixed with 0.1ml matrigel, and then inoculated subcutaneously on the right flank of each mouse to form a tumor. The tumor-bearing mice were allowed to develop to an average tumor volume of around 200mm^3 and underwent castration surgery. The tumor volumes of all mice were measured after one week of castration surgery. Suitable tumor-bearing mice were selected and assigned randomly into the following groups: blank control group, prednisone (0.6mg/kg, QD) group, abiraterone (33.73mg/kg, QD) + prednisone (0.6mg/kg, QD) group, ODM-208 (30mg/kg, BID) + prednisone (0.6mg/kg, QD) group, and the compound of the present disclosure (30mg/kg, BID) + prednisone (0.6mg/kg, QD) group. Animals in blank control group were orally administered with vehicles (0.5%MC+0.5%Tween80 and 0.5%CMCNa), and the animals in other groups were orally administered with corresponding compound. The experiment lasted for 32 days, and during the experiment, the animals in each group were measured for tumor volume and body weight twice a week.

[2] = test system: testosterone, progesterone, corticosterone; test: LC-MS detection of testosterone, progesterone and corticosterone in mouse tumors and adrenal glands; type: in vivo; settings: VCaP model; for secretion of testosterone, progesterone and corticosterone in tumors and adrenal glands (in words): mouse tumors and adrenal glands
From the text: • Mouse tumors were homogenized using PBS in a 1:5 ratio (tumor weight (g): PBS volume (mL), w/v); • Mouse adrenal glands were homogenized using PBS in a 1:10 ratio (adrenal gland weight (g): PBS volume (mL), w/v); • Standard sample: testosterone (LGC, C17322500), progesterone (MCE, HY-N0437), adrenal ketone (MCE, HY-B1618), and standard solution of test substance.
Experiment procedures: since the three markers, i.e., testosterone, progesterone, and adrenal ketone, are all endogenous substances and present in the blank matrix as well, PBS was alternatively used as matrix in the production of the standard curve.
Testosterone: multiple reaction monitoring (MRM) method was used for detecting the concentrations of testosterone in mouse tumors and adrenal glands. Mass spectrum: AB Sciex Triple Quad 6500+; liquid chromatography: Shimadzu 40A, column: Waters XBridge BEH C18 2.5 µm 2.1*50mm, testosterone ion pair: 289.4/97.2. Both tumor and adrenal tissues were treated with methanol as precipitant and tolbutamide as internal standard for sample pretreatment, with linear range in 50-50,000pg/mL.
Progesterone and corticosterone: multi-reaction detection method (MRM) was used for detecting the concentrations of progesterone and corticosterone in mouse tumors and adrenal glands. Mass spectrum: AB Sciex Triple Quad 6500+; liquid chromatography: Shimadzu 40A, column: Waters XSelect HSS T3 2.5 µm 2.1*50mm, progesterone ion pair: 315.4/97.2, adrenone ion pair: 347.4/121.3. For tumor tissues, acetonitrile was used as precipitant and propranolol diclofenac as internal standard for sample pretreatment, with linear ranges in 0.05-10 ng/mL of progesterone and 0.10-20 ng/mL of corticosterone. For adrenal tissues, methanol was used as precipitant and propranolol diclofenac as internal standard for sample pretreatment, with linear ranges in 5-2,500 ng/mL of progesterone and 5-2,500 ng/mL of corticosterone.

Structure (SMILES) | weight loss (in words) [1] | tumor inhibitory activity (in words) [1] | secretion of progesterone in the adrenal glands (in words) ([2]; adrenal glands of mice, vs control group) | secretion of testosterone, progesterone and corticosterone in tumors and adrenal glands (in words) [2] | animal weight loss ([1]; 32 days) [%] | tumor inhibition rate TGI ([1]; castrated tumor-bearing mice, 32 days) [%] | concentration of progesterone in the adrenal glands, relative to ODM-208 ([2]; adrenal glands, fraction of the ODM-208 group) | concentration of testosterone in the tumors, relative to the ODM-208 group ([2]; tumors, fraction of the ODM-208 group)
Cn1c(CN2Cc3ccccc3C2)c(F)cc(CCC2CCN(S(C)(=O)=O)CC2)c1=O [compound 72] | without significant weight loss | significantly better than ODM-208 | significant inhibitory effect | significantly inhibited | – | – | – | –
COc1cc(CN2Cc3ccccc3C2)ccc1CCC1CCN(S(C)(=O)=O)CC1 [compound 53] | without significant weight loss | significantly better than ODM-208 | – | significantly inhibited | -2 | 112 | 1/4 | 1/8
